Test results published in patent US12168007B1, “Substituted piperazines as dopamine D3/D2 receptor modulators” (Richter Gedeon Nyrt, priority 2023, dated 2024).
Values after ≈ are worked out from the molar mass of the structure shown. Like-named read-outs stand apart in the source and are kept apart here.

Legend:
[1] = Thermodynamic solubility study (37° C., 4 hours); format: physicochemical; conditions: fassgf or other biorelevant, thermodynamic from solid, SIF pH = 6.8, 4 hours, read-out: Thermodynamic sol.
Description: Thermodynamic Solubility Study (37° C., 4 Hours)
The resulted mixtures/oversaturated solutions are shaken at 37° C. for 4 hrs (to the solution equilibrium) and are filtrated on a Millipore MultiSreen Filter Plate (0.45 μm). Concentrations of the filtrates are determined by LC/UV/MS based on a 5-point calibration. (When the solid material dissolved totally in the aqueous test medium the result should be considered as a minimal value.) Results are shown in Table 2.

Kinetic solubility study = format: physicochemical; conditions: PBS pH 7.4 with 1% DMSO, aqueous buffer, kinetic from dmso stock; PBS pH = 7.4, 2 hours, RT, 1% DMSO co-solvent; read-out: Kinetic sol.
Description: Following shaking of the suspension on an orbital shaker at 300 rpm for 2 hours, the suspension was clarified by vacuum filtration (Multiscreen® Vacuum Manifold; MilliporeSigma). Immediately following the filtration step, […] of the filtrate was transferred into […] of acetonitrile to avoid compound precipitation from the saturated solution. The concentration of the research compound was determined by HPLC-UV-(MS) detection, by using an external standard made from the same batch of research compound.

human 5-HT2A receptors = human 5-HT2A receptors (Homo sapiens (Human), UniProt P28223); experiment: Antagonism at human 5-HT2A receptors, fluorometric Ca2+ detection; format: cell-based; conditions: CHO-K1 cells with Gα16, against EC80 5-HT; read-out: 5-HT2A Ca2+ pIC50 (converted)
Description: Characterization of Antagonism at Human 5-HT2A Receptors using Fluorometric Ca^2+ Detection
CHO-K1 cells expressing human recombinant 5-HT2A receptors and Gα16 (purchased from Euroscreen Fast, Brussels, BE) in culture were cryopreserved according to established protocols, using 90% FBS/10% DMSO as medium. Prior to the experiment, cells were thawed, resuspended in PowerCHO™ 2 medium (Lonza, Basel, Switzerland) supplemented with 10% fetal bovine serum (FBS), 1% penicillin-streptomycin antimycotic solution, and 1% pyruvate. Cells were seeded in 96-well microplates at a density of 40,000 cells/well and incubated overnight at 37° C. in a humidified atmosphere containing 5.0% CO2. […]
Baseline and agonist-evoked [Ca^2+]i (intracellular Ca^2+) changes were monitored with a FlexStation® II 96 well plate reader (Molecular Devices, San Jose, CA, USA). […] Baseline was recorded for 20 seconds followed by agonist stimulation, when 50 μL 3× concentrated agonist (5-HT at its EC80) solution or assay buffer/vehicle was added to all wells at 75 μL/second using the onboard pipettor, at a height corresponding to 155 μL. Fluorescence was monitored for an additional 20 seconds.
Compounds were evaluated against an EC80 5-HT concentration, as determined on each plate with the built-in curve fitting module of the measurement software (SoftMax® Pro 5.2, Molecular Devices, San Jose, CA, USA). […]

[2] = system: apomorphine-induced climbing and sniffing; experiment: Apomorphine-induced climbing and sniffing in mice; format: in vivo; conditions: Mus musculus, sc, male CD1 mice, subcutaneous, 1.5 mg/kg apomorphine
Description: Apomorphine-Induced Climbing and Sniffing in Mice
Male CD1® mice (Envigo, Horst, NL) weighing 24-29 g were used in the experiments (n=12 per treatment group). Climbing and sniffing behavior were measured by visual observation in cylindrical cages.
Immediately after the subcutaneous administration of the vehicle or the test compound, animals were placed into the cages for 10 minutes to habituate. […] After treatment, animals were replaced into the cylindrical cages. The measurement of climbing and sniffing behavior started 10 minutes after the apomorphine treatment (during the 11th minute) and lasted for 16 minutes. Every minute the climbing behavior was scored as follows: four paws on the floor (0 score); forefeet touching the bars (1 score); and four paws grasping the bars (2 score). Animals were also rated for repetitive sniffing as a measure of stereotypy according to the following scale: no sniffing (0 score), moderate sniffing, little snout contact with cage walls or floor (1 score); and constant sniffing, persistent snout contact (2 score).
Data were analyzed using GraphPad Prism 9 software (GraphPad). Scores for both behaviors were tallied for each individual (possible maximum score 32) and group means were calculated. Drug effect was calculated as percent inhibition of the apomorphine-induced behavior. […]

[3] = system: phencyclidine-induced hypermotility; experiment: Phencyclidine-induced hypermotility in rats; format: in vivo; conditions: Rattus norvegicus; male Harlan-Wistar rats, percent inhibition, linear regression; read-out: PCP (ED50 mg/kg)
Description: Phencyclidine-Induced Hypermotility in Rats
Spontaneous locomotor activity was measured using a six-channel activity monitor manufactured by Experimetria Ltd. (Budapest, HU). […] Additional arrays of photocells (30 pairs) were placed along opposite sides of the cage at different heights (6.5 cm, 12 cm, 18 cm and 23 cm) in order to detect rearing responses.
Test compounds were administered to study animals either orally or subcutaneously, with ten animals per treatment group. In these studies, male Harlan-Wistar rats (Toxi-Coop, Budapest, HU) weighing 190-210 grams were used. After oral administration of test compound or vehicle, animals were individually habituated to the activity monitors for 30 minutes. In the cases of subcutaneous administration of test compounds, rats were first habituated for 15 minutes to the activity monitors, then treated with the test compound or vehicle followed by replacing them into the activity monitors for an additional 15-minute period of habituation. […]
Data were analyzed using GraphPad® Prism® 9 software (GraphPad, San Diego, CA, USA). […] Drug effect was evaluated using Analysis of Variance (ANOVA, or Welch's ANOVA when appropriate) followed by Dunnett's multiple comparisons test. When appropriate, the ED50 value was determined from percent inhibition data from linear regression analysis.

human D3 receptors [4] = biological target: T1, human D3 receptors (Homo sapiens (Human), UniProt P35462); experiment: β-arrestin recruitment to human dopamine D3 receptors (PathHunter CHO-K1); format: cell-based
Target sequence in this assay (P35462 whole entry, looked up): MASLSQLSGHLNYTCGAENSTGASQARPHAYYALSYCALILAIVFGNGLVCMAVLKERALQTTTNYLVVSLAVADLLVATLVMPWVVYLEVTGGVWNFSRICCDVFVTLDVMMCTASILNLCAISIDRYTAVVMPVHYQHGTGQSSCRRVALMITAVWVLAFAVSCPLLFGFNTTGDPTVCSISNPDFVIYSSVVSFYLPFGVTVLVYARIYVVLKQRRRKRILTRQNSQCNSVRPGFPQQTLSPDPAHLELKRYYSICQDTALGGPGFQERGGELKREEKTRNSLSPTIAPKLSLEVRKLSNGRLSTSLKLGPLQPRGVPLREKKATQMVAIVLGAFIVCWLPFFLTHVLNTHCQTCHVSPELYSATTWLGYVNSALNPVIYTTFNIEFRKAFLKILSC
Target sequence in this assay (P32121 whole entry partner, looked up): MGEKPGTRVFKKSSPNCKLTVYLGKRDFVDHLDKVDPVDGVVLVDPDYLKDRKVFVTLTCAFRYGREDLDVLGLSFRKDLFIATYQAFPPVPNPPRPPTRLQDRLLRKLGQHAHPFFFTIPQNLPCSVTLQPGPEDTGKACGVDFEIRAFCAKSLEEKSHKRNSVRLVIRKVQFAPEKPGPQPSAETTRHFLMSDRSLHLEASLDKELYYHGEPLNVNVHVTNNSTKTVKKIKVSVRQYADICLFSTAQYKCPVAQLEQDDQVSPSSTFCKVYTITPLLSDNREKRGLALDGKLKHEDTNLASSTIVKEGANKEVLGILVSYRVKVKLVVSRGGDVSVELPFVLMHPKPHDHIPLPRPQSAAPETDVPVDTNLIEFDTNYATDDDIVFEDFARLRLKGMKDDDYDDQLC
Description: Measurement of β-Arrestin Recruitment to Human Dopamine D3 Receptors
PathHunter® CHO-K1 cells expressing tagged human D3 receptors and tagged β-arrestin-2 (Eurofins DiscoverX, Fremont, CA, USA) were seeded into 96-well white-walled clear bottom tissue culture plates in 90 μL AssayComplete™ Cell Plating 2 (CP2) reagent (Eurofins DiscoverX) at a density of 25,000 cells/well and incubated overnight in humidified atmosphere with 5% CO2 at 37° C. Twenty to twenty-four hours later, 20 μL of test compounds or vehicle in CP2 reagent containing 2.2% DMSO was added to the cells and the cells were incubated for 90 minutes at 37° C. Following incubation, 55 μL PathHunter® Detection Reagent (Eurofins DiscoverX) was added per well and the plates were incubated for 60 minutes at 25° C. followed by luminescence detection using a PHERAstar® FS multimode plate reader (BMG Labtech, Ortenberg, Germany).
Raw data were first converted to stimulation % above basal values. The stimulation % above basal values were further converted to % of maximal stimulation of β-arrestin recruitment by 1 μM dopamine. EC50 values were calculated from concentration-response curves of at least six concentrations in duplicates by sigmoidal fitting using Origin® 7.5 software (OriginLab© Corporation, Northampton, MA, USA) and were defined as the concentration of the agonist with half-maximal stimulation.

human D2L receptors [5] = biological target: T2, human D2L receptors (Homo sapiens (Human), UniProt P14416); experiment: β-arrestin recruitment to human dopamine D2L receptors (PathHunter CHO-K1); format: cell-based; conditions: β-arrestin-2 recruitment, CHO-K1 cells, normalized to 30 μM dopamine; read-out: D2L arrestin pEC50 (converted)
Target sequence in this assay (P14416 whole entry, looked up): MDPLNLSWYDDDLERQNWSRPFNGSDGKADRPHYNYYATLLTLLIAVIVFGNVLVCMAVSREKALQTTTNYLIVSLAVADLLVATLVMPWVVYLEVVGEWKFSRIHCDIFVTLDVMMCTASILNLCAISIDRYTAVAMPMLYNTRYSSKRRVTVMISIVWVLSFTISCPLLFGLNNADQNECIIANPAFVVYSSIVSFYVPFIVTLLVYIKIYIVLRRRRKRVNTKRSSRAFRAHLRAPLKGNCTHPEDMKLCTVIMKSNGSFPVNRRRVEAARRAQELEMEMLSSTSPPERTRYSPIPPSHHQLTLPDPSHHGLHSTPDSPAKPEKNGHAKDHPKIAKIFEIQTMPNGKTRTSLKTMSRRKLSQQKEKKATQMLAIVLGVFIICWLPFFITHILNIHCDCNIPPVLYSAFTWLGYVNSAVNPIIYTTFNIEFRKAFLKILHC
Target sequence in this assay (P32121 whole entry partner, looked up): as the sequence (P32121 whole entry partner, looked up) above
Description: Measurement of β-Arrestin Recruitment to Human Dopamine D2L Receptors
PathHunter® CHO-K1 cells expressing tagged human D2L receptors and tagged β-arrestin-2 (Eurofins DiscoverX, Fremont, CA, USA) were seeded into 96-well white-walled clear bottom tissue culture plates in 90 μL/cell AssayComplete™ Cell Plating 2 (CP2) reagent (Eurofins DiscoverX) at a density of 20,000 cells/well. The plates were incubated overnight in a humidified atmosphere with 5% CO2 at 37° C. Twenty to twenty-four hours later, 20 μL of test compound or vehicle in CP2 reagent and containing 2.2% DMSO was added to the cells, and they were incubated for 90 minutes at 37° C. Then, 55 μL PathHunter® Detection Reagent (Eurofins DiscoverX) was added per well and plates were incubated for 60 minutes at 25° C., followed by luminescence detection using a PHERAstar® FS multimode plate reader (BMG Labtech, Ortenberg, Germany). Raw data were converted to percent stimulation above basal values. Values were further converted to percent of maximal stimulation of β-arrestin recruitment by 30 μM dopamine. EC50 values were calculated from concentration-response curves of at least six concentrations run in duplicates by sigmoidal fitting using Origin® 7.5 software (OriginLab Corporation, Northampton, MA, USA) and were defined as the concentration of the agonist with half-maximal stimulation.

human D3 receptors [6] = biological target: T1, human D3 receptors; experiment: Agonism at human D3 receptors, cAMP detection (HTRF) in HEK293 cells; format: cell-based; conditions: inhibition of forskolin-stimulated cAMP accumulation, HEK293 cells co-expressing adenylyl cyclase V; read-out: D3 cAMP pEC50 (converted)
Target sequence in this assay (P35462 whole entry): as the sequence (P35462 whole entry, looked up) above
Description: Characterization of Agonism at Human D3 Receptors Using Cyclic Adenosine Monophosphate Detection
Agonist activity at human D3 receptors was assayed by cAMP levels in HEK293 cells expressing recombinant human D3 receptors (BioXtal, Saint-Félix, France) stably co-expressing adenylyl cyclase V (ACV) (cell line developed by Gedeon Richter) by homogenous time-resolved fluorescence (HTRF) using the cAMP Gi kit (Cisbio/PerkinElmer). HEK293 cells expressing recombinant human D3 receptors and ACV were cultured in DMEM supplemented with 10% FBS, 1% penicillin-streptomycin antimycotic solution, 1% pyruvate, 100 μg/mL G418 (Thermo Fisher Scientific) and 60 μg/mL hygromycin B and maintained at 37° C. in a humidified atmosphere containing 5% CO2. […]
Results were calculated from the ratio of acceptor fluorescence signal (A665 nm) and donor fluorescence signal (A620 nm)×10^4 and expressed as ΔF % values using the following formula: 100× (ratio sample-ratio negative control)/ratio negative control. In all experiments multiple wells were measured in parallel, and the mean ΔF % values were used for further analysis. Agonist activity values were calculated as percentage of inhibition of forskolin-stimulated cAMP accumulation normalized to the response evoked by a maximally effective concentration of dopamine tested in the same experiment. […]

human D2L receptors [7] = biological target: T2, human D2L receptors; experiment: Agonism of human D2L receptors, cAMP detection (HTRF) in CHO-K1 cells; format: cell-based; conditions: inhibition of forskolin-stimulated cAMP accumulation, read-out: D2L cAMP pEC50 (converted)
Target sequence in this assay (P14416 whole entry): as the sequence (P14416 whole entry, looked up) above
Description: Agonist activity at human D2L receptors was assayed by measuring cAMP levels in CHO-K1 cells expressing human D2L receptors (Eurofins DiscoverX, Fremont, CA, USA) by homogenous time-resolved fluorescence (HTRF®) using the cAMP Gi kit (Cisbio/PerkinElmer). CHO-K1 cells expressing human D2L receptors were cultured in Ham's F12 medium supplemented with 10% FBS, 1% penicillin-streptomycin antimycotic solution, and 800 μg/mL G418 (Thermo Fisher Scientific, Waltham, MA, USA) and maintained at 37° C. in a humidified atmosphere containing 5.0% CO2. […] Results were calculated from the ratio of acceptor fluorescence signal (A665 nm) and donor fluorescence signal (A620 nm)×10^4 and expressed as ΔF % values using the following formula: 100×(Ratio Sample-Ratio Negative Control)/Ratio Negative Control. In experiments, all treatments were measured in multiple wells in parallel, and the mean ΔF % values were used for further analysis. Agonist activity values were calculated as percentage of inhibition of forskolin-stimulated cAMP accumulation normalized to the response evoked by a maximally effective concentration of dopamine tested in the same experiment. […]

Chain of human 5-HT2A receptors (P28223 whole entry): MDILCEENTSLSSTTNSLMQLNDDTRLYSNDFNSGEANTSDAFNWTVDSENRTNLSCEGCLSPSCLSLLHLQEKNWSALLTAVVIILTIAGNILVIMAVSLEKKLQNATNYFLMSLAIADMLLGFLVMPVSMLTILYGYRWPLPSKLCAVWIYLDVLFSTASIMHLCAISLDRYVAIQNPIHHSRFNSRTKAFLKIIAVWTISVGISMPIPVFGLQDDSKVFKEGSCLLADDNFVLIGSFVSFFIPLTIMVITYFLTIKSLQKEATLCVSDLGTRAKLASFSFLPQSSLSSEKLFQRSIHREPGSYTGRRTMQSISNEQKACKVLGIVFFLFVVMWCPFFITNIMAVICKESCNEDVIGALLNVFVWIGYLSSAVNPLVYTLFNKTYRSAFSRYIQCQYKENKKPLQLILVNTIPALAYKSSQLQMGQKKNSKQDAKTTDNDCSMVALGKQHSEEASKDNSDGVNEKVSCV

| solubility thermodynamic at 4 h [1] | solubility kinetic at 2 h (Kinetic solubility study) | Structure (SMILES) | IC50 (human 5-HT2A receptors) | ED50 ([2]; apomorphine-induced climbing, read-out: APO (ED50 cl mg/kg)) | ED50 ([2]; apomorphine-induced sniffing, read-out: APO (ED50 sn mg/kg)) | ED50 [3] | EC50 (human D3 receptors [4]) | EC50 (human D2L receptors [5]) | EC50 (human D3 receptors [6]) | EC50 (human D2L receptors [7]) |
| --- | --- | --- | --- | --- | --- | --- | --- | --- | --- | --- |
| 53.5 ± 0.9 µM (≈ 25.2 µg/mL) | 72.7 ± 3.4 µM (≈ 34.3 µg/mL) | CCOCN(C)C(=O)N[C@H]1CC[C@H](CCN2CCN(c3cccc(Cl)c3Cl)CC2)CC1 [Example 1, N′-[(1r,4r)-4-{2-[4-(2,3-dichlorophenyl)piperazin-1-yl]ethyl}cyclohexyl]-N-(ethoxymethyl)-N-methylurea] | 158 nM | 0.1 mg/kg | 0.4 mg/kg | 0.07 mg/kg |  |  |  |  |
| 32.7 ± 1.65 µM (≈ 15.9 µg/mL) | 32.4 ± 3.2 µM (≈ 15.7 µg/mL) | CCCOCN(C)C(=O)N[C@H]1CC[C@H](CCN2CCN(c3cccc(Cl)c3Cl)CC2)CC1 [Example 3, N′-[(1r,4r)-4-{2-[4-(2,3-dichlorophenyl)piperazin-1-yl]ethyl}cyclohexyl]-N-methyl-N-(propoxymethyl)urea] |  |  |  |  |  |  |  |  |
| 27.7 ± 1.1 µM (≈ 12.6 µg/mL) | 10.9 ± 1.7 µM (≈ 4.96 µg/mL) | CCCN(C)C(=O)N[C@H]1CC[C@H](CCN2CCN(c3cccc(Cl)c3Cl)CC2)CC1 [Ref. Ex. 1, N′-[(1r,4r)-4-{2-[4-(2,3-dichlorophenyl)piperazin-1-yl]ethyl}cyclohexyl]-N-methyl-N-propylurea, reference compound] |  |  |  |  |  |  |  |  |

| Structure (SMILES) | solubility thermodynamic at 4 h [1] | solubility kinetic at 2 h (Kinetic solubility study) | IC50 (human 5-HT2A receptors) | ED50 ([2]; apomorphine-induced climbing, read-out: APO (ED50 cl mg/kg)) | ED50 ([2]; apomorphine-induced sniffing, read-out: APO (ED50 sn mg/kg)) | ED50 [3] | EC50 (human D3 receptors [4]) | EC50 (human D2L receptors [5]) | EC50 (human D3 receptors [6]) | EC50 (human D2L receptors [7]) |
| --- | --- | --- | --- | --- | --- | --- | --- | --- | --- | --- |
| COCN(C)C(=O)N[C@H]1CC[C@H](CCN2CCN(c3cccc(Cl)c3Cl)CC2)CC1 [Example 2, N′-[(1r,4r)-4-{2-[4-(2,3-dichlorophenyl)piperazin-1-yl]ethyl}cyclohexyl]-N-(methoxymethyl)-N-methylurea] | 147 ± 8.72 µM (≈ 67.3 µg/mL) | 47.7 ± 4.5 µM (≈ 21.8 µg/mL) | 132 nM |  |  |  | 3.89 nM | 0.724 nM | 1.95 nM | 1.32 nM |
